The values below come from patent US11413328B2, “Methods for treating inflammatory conditions of the lungs” (priority 2016, dated 2022).

This data set can be described thus: Pharmacokinetics after single oral gavage. It counts as in vivo, NMRI mice. The note with it: oral 4 mg/kg in mice. As for the experimental part:
Pharmacokinetic study to establish pharmacokinetic profile of hBD-2 following single oral gavage of 4 mg/kg administration to NMRI mice.
21 female NMRI mice were dosed by oral gavage 5 ml/kg using a gavage tube and a 1 ml syringe according to the individual body weight obtained on the day of dosing. Urine was strived sampled at random time points by gently massaging the inguinal area of the abdomen. The first blood sample was taken using a submandibular sampling method. The second blood sample was collected from Isoflurane anaesthetized mice. Intestinal samples were taken after euthanasia. The abdomen of each mouse was opened and three sections of the intestines were sampled.

Bridges are numbered along the chain shown (N, C = ends). Where no end group is shown, it is not given here.

“GIGDPVTCLKSGAICHPVFCPRRYKQIGTCGLPGTKCCKKP (disulfide 8-37, 15-30, 20-38 (inferred)) [hBD-2, human beta defensin 2]”: the “systemic availability after oral dosing” value is reported as “not systemically available”.
